Measurements as given in publication PMC6892255, “Identification of a potent small-molecule inhibitor of bacterial DNA repair that potentiates quinolone antibiotic activity in methicillin-resistant Staphylococcus aureus^” (Bioorganic & Medicinal Chemistry, 2019).

Experiments:
S. aureus SH1000 = experiment: MIC / growth inhibition assay (end-point OD600), single agent; assay type: cell-based; conditions: Staphylococcus aureus, SH1000, 18 h, end-point OD600 after 18 h, read-out: EC50 S. aureus (SH1000) Compound only
Description: (§1) Minimum inhibitory concentration (MIC) assays were used to evaluate the antimicrobial activity of compounds against Gram-negative (E. coli) and Gram-positive (S. aureus) bacteria. […] Gram-positive bacteria are more susceptible to small-molecule penetration, and compounds were therefore assessed for growth inhibition against the S. aureus SH1000 strain.
(§2) 2.1. Biological and biochemical methods
(§3) Bacterial strains and culture conditions
(§4) Strains utilized in the present study are detailed in Table S1. All strains used were cultivated on Mueller Hinton Agar (MHA) and grown to stationary-phase in Mueller Hinton Broth (MHB) at 37 °C for 16 h, with shaking at 180 r.p.m.
(§5) Minimum inhibitory concentration (MIC) assays
(§6) MIC assays were performed in 96 well plates and MICs were determined in accordance with the broth microdilution protocol.4 Strains grown to stationary-phase in MHB were adjusted to 5 x 10^5 colony-forming units (CFU)/mL in fresh MHB (100 µL/well) supplemented with DMSO to ensure a constant concentration of 0.5% (v/v) DMSO across all experiments. Where […]
(§7) or H2O2 (200 μM). Test compounds were prepared as two-fold serial dilutions. Cells were […]
(§8) as the lowest concentration with no visible bacterial growth, and the optical density at 600 nm (OD600) was recorded. OD600 measurements were background corrected against no-inocula control and normalized to DMSO control for dose-response analysis. The EC50 value mean and SEM were calculated from individual EC50 values from three biological replicates. […]

JE2 = experiment: Synergy experiments with CFX (growth rate method, Chou-Talalay, CompuSyn); assay type: cell-based, Staphylococcus aureus
Procedure: A more precise method to determine EC50 values for individual compounds and combinations was used to increase accuracy for CI calculations. […]
Synergy experiments were performed as described for MIC assays. Two-fold serial dilutions […]
carried out at 37 °C, with shaking at 220 r.p.m. OD600 was recorded every 30 min over a 17 h period. Measurements were background corrected against the no-inocula control before a growth curve of OD600 against time was constructed. The gradient of the exponential phase was obtained by linear regression. Gradients were normalized against the smallest and largest value within the respective data set prior to analysis with the CompuSyn software (http://www.combosyn.com/) to calculate combination index (CI) and dose-reduction index (DRI) values for each drug combination. […]

MRSA (USA300 JE2) [1] = experiment: Growth inhibition in the presence of mitomycin-C; assay type: cell-based, Staphylococcus aureus; conditions: read-out: EC50 Compound + MMC (0.40 µM); MRSA USA300 JE2, mitomycin-C 0.40 µM
Procedure: (§9) The analogue panel was further tested for potentiation of alternative DNA-damaging agents Mitomycin-C (MMC) and hydrogen peroxide (Table S2), which function via alkylation and oxidization DNA bases, respectively.
as §2, §3, §4, §5, §6, §7, §8

[2] = test system: methicillin-resistant S. aureus (MRSA, USA300 JE2); experiment: MIC / growth inhibition assay (end-point OD600), single agent; assay type: cell-based, Staphylococcus aureus; conditions: for EC50: Staphylococcus aureus, 18 h, read-out: EC50 S. aureus (USA300 JE2) Compound only, single agent, end-point OD600 after 18 h; for fold less potent against JE2 compared to SH1000: ratio of single-agent EC50 values
Description: as §1
Methicillin-resistant S. aureus (MRSA) is a multi-drug resistant bacterium responsible for a large number of nosocomial infections.[34] The emergence of community associated (CA)-MRSA capable of infection of healthy individuals highlights its significance and clinical relevance.[35]
as §2, §3, §4, §5, §6, §7, §8

E. coli K-12 BW25113 = experiment: as above; assay type: cell-based, Escherichia coli; conditions: for EC50: Escherichia coli, BW25113, end-point OD600 after 18 h, read-out: EC50 E. coli (K12 BW25113) Compound only
Description: as §1, §2, §3, §4, §5, §6, §7, §8

[3] = test system: methicillin-resistant S. aureus (MRSA, USA300 JE2); experiment: Ciprofloxacin (CFX) potentiation in MRSA growth inhibition assay; assay type: cell-based, Staphylococcus aureus; conditions: for EC50: read-out: EC50 S. aureus (USA300 JE2) Compound + CFX (9.4 μM), in presence of half-MIC CFX (9.4 μM)
Procedure: as §2, §3, §4, §5, §6, §7, §8

E. coli topoisomerase IV = biological target: T1, E. coli topoisomerase IV (Escherichia coli, UniProt P0AFI2+P20083); experiment: Topoisomerase IV supercoiling relaxation assay (pQE80L); assay type: biochemical; conditions: at 12.5 µM (compounds)
T1 construct: purchased Inspiralis
T1 sequence (P0AFI2 whole entry): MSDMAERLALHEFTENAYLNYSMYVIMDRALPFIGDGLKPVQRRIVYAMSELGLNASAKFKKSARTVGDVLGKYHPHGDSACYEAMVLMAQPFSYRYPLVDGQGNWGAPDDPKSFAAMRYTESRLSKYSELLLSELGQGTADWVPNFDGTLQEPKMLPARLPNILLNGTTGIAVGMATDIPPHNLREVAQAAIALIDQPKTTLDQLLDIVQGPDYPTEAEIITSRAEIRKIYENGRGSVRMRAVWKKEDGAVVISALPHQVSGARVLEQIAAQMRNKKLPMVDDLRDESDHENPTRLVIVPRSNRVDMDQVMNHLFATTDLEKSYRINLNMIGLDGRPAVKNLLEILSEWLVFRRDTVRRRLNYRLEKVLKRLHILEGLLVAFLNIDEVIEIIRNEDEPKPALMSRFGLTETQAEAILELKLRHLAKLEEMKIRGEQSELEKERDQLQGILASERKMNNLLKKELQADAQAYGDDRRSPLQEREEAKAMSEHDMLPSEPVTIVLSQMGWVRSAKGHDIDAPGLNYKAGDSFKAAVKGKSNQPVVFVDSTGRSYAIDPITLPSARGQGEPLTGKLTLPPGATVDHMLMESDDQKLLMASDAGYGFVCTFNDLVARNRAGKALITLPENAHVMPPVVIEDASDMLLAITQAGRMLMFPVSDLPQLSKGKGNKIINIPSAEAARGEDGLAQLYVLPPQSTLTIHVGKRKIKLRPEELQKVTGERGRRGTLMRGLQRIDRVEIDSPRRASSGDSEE
T1 sequence (P20083 whole entry): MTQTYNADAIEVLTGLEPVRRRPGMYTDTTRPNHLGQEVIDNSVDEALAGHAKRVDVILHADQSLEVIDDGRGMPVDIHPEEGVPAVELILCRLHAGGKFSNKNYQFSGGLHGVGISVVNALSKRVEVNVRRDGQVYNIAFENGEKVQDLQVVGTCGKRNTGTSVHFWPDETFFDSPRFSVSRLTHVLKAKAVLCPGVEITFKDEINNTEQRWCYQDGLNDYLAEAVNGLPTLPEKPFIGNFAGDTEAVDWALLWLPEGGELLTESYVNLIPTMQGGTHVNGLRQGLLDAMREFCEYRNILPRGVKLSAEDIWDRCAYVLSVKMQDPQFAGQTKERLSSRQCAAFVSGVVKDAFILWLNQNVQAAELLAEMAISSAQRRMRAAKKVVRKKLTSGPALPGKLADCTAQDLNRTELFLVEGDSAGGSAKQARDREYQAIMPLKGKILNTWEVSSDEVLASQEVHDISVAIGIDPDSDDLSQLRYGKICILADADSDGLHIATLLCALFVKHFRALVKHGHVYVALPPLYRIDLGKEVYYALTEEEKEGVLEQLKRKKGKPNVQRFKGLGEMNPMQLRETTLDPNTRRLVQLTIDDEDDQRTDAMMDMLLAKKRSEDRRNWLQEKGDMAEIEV
Procedure: 2.1. Biological and biochemical methods […]
E. coli DNA gyrase supercoiling assay (Inspiralis) was performed according to the manufacturer’s instructions, ensuring a constant concentration of 1% (v/v) DMSO. Samples were separated on a 1% (w/v) agarose gel prepared with Tris/Borate/EDTA (TBE) buffer (1 M Tris-borate, 20 mM EDTA, pH 8.0). Electrophoresis was performed at 100 V until the bromophenol blue dye had run >6 cm to ensure resolution of relaxed and supercoiled DNA.
The gel was stained with SYBR Safe DNA gel stain (Invitrogen, 1:10,000 dilution in TBE) for 30 min, and visualized on a Syngene Gel Doc system. Band intensity was quantified using ImageJ software and the fraction of supercoiled plasmid was determined as the ratio of the density of the supercoiled band to the total density. Values were background corrected against the no-gyrase control and normalized to DMSO control for dose-response analysis.
E. coli topoisomerase IV supercoiling relaxation assay (Inspiralis) was performed according to the manufacturer’s instructions, ensuring a constant concentration of 1% (v/v) DMSO.
Supercoiled pQE80L was prepared via plasmid purification and used as the substrate for the reaction. Reactions were analyzed as described for DNA gyrase assays. […]

MRSA (USA300 JE2) [4] = experiment: Growth inhibition in the presence of H2O2; assay type: cell-based, Staphylococcus aureus; conditions: read-out: EC50 Compound + H2O2 (200 µM); MRSA USA300 JE2, H2O2 200 µM
Procedure: as §9, §2, §3, §4, §5, §6, §7, §8

Compound | EC50 (S. aureus SH1000) [nM] | Combination index (CI) with CFX (JE2; JE2, constant-ratio combination with CFX, CompuSyn) | EC50 (JE2; Staphylococcus aureus, JE2, rate of exponential growth phase over 17 h at 37 °C) [nM] | EC50 (MRSA (USA300 JE2) [1]) [nM] | EC50 [2] [nM] | EC50 (E. coli K-12 BW25113) [nM] | EC50 [3] [nM] | Inhibition of topoisomerase IV (E. coli topoisomerase IV) | EC50 (MRSA (USA300 JE2) [4]) [nM] | fold increase in potency of para- over meta-substituted analogue, potentiation by CFX ([3]; JE2 + CFX, 4 vs 1, 10 vs 7, 14 vs 13) [fold] | fold more potent against E. coli than SH1000 (E. coli K-12 BW25113) [fold] | fold less potent against JE2 compared to SH1000 [2] [fold]
CCn1cc(C(=O)O)c(=O)c2cnc(N3CCN(C(=S)Nc4cccc(C(F)(F)F)c4)CC3)nc21 [Compound 1, reference compound] | 8200 ± 1700 | 1.0 | 5900 ± 200 | 3300 ± 600 | 6900 ± 600 | > 100000 | 1100 ± 100 | not inhibited and not | 6500 ± 100 |  |  | 
CCn1cc(C(=O)O)c(=O)c2cnc(N3CCN(C(=S)Nc4ccc(C(F)(F)F)cc4)CC3)nc21 [Compound 4] | 5200 ± 1100 |  |  | 2900 ± 200 | 4000 ± 300 | > 100000 | 240 ± 30 |  | 4700 ± 900 | ~5 |  | 
O=C(O)c1cn(C2CC2)c2cc(N3CCC(NC(=S)Nc4ccc(C(F)(F)F)cc4)C3)c(F)cc2c1=O (stereo not shown) [Compound 17] | 1600 ± 400 |  |  |  | 53000 ± 13000 | 2800 ± 400 | 3200 ± 300 |  |  |  |  | 
CCn1cc(C(=O)O)c(=O)c2cnc(N3CCN(C(=S)Nc4cc(Cl)cc(Cl)c4)CC3)nc21 [Compound 6] | 2300 ± 300 |  |  | 1500 | 1800 ± 100 | > 100000 | 120 ± 40 |  | 2500 ± 400 |  |  | 
NCCNC(=O)c1cn(C2CC2)c2cc(N3CCN(C(=S)Nc4ccc(C(F)(F)F)cc4)CC3)c(F)cc2c1=O [Compound 20] | 76000 ± 5000 |  |  |  | 78000 ± 8000 | 47000 ± 1000 |  |  |  |  |  | 
CCn1cc(C(=O)O)c(=O)c2cnc(N3CCN(C(=S)Nc4cccc(F)c4)CC3)nc21 [Compound 2] | 6900 ± 400 |  |  | 21000 ± 2200 | 27000 ± 400 | > 100000 | 730 ± 120 |  | 24000 ± 3000 |  |  | 
O=C(O)c1cn(C2CC2)c2cc(N3CCN(C(=S)Nc4cc(C(F)(F)F)cc(C(F)(F)F)c4)CC3)c(F)cc2c1=O [Compound 9] | 1500 ± 300 |  |  | 1800 ± 300 | 3500 ± 400 | 390 ± 10 | 470 ± 70 |  | 2600 ± 300 |  | ~5 | 
O=C(O)c1cn(C2CC2)c2cc(N3CCN(C(=S)Nc4cccc(Cl)c4)CC3)c(F)cc2c1=O [Compound 11] | 120 ± 40 |  |  | 2200 ± 600 | 2800 ± 100 | 460 ± 100 | 84 ± 7 |  | 3200 |  |  | > 20
O=C(O)c1cn(C2CC2)c2cc(N3CCN(C(=S)Nc4cccc([N+](=O)[O-])c4)CC3)c(F)cc2c1=O [Compound 13] | 110 ± 30 |  |  |  | > 25000 | 270 ± 20 | 430 ± 90 |  |  |  |  | 
O=C(O)c1cn(C2CC2)c2cc(N3CCN(C(=S)Nc4cc(Cl)cc(Cl)c4)CC3)c(F)cc2c1=O [Compound 12] | 84 ± 7 |  |  | 800 | 3600 ± 400 | 420 ± 20 | 43 ± 11 |  | 2900 ± 800 |  |  | > 20
CC1CN(c2cc3c(cc2F)c(=O)c(C(=O)O)cn3C2CC2)CCN1C(=S)Nc1ccc(C(F)(F)F)cc1 (stereo not shown) [Compound 16] | 260 ± 40 |  |  |  | 3900 ± 400 | 300 ± 60 | 18 ± 3 |  |  |  |  | 
